System: P. falciparum NF54 strain
Assay: [3H]hypoxanthine incorporation assay, individual drugs
Type: cell-based
Details: Plasmodium falciparum, 72 h
Protocol: IC50 and drug interaction studies were performed as previously described ([27], [28]). […] Cultures were harvested onto glass fiber filters, washed, and the radioactivity was counted using a MicroBetaplate liquid scintillation counter and recorded as counts per minute (cpm) per well. Results are expressed as a percentage of the untreated controls (see the supplemental material for more details). page 2: 25 In vitro isobolograms 26 Compounds were tested against intraerythrocytic forms of P. falciparum derived from asynchronous stock cultures 27 of lab strain NF54 (Schiphol airport strain of unknown origin), as previously described.i,ii The culture medium was […] 29 mM HEPES, 25 mM NaHCO3 (pH 7.3), 0.36 mM hypoxanthine and 100 μg/mL neomycin. Human type A+ 30 erythrocytes served as host cells. […] 31 in humidified modular chambers. Testing of the individual drugs was carried out in 96-well microtiter plates. The 32 compounds were dissolved in DMSO (10 mg/mL), prediluted in hypoxanthine-free culture medium and titrated in […] After addition of an equal volume of parasite culture with a parasitemia of […] Parasite growth was measured by the incorporation of radiolabelled [3H]hypoxanthine (0.25 µCi in […] 37 assay duration) prior to the termination of the test. Cultures were harvested onto glass-fiber filters and washed with 38 distilled water. The radioactivity was counted using a MicroBetaplate liquid scintillation counter (Wallac, Zürich, 39 Switzerland) and the results recorded as counts per minute (cpm) per well at each drug concentration and expressed 40 as percentage of the untreated controls. Fifty percent inhibitory concentrations (IC50) were determined by linear 41 interpolation.v 42 43 For data interpretation, the IC50s of the drugs in combination were expressed as fractions of the IC50s of the drugs 44 alone. These fractions were called “Fractional Inhibitory Concentrations” (FIC) for drug A and for drug B, 45 respectively. 46 FIC Drug A = IC50 A (B) IC50 A […] 49 50 Formulation 51 Pyronaridine (tetraphosphate salt) and […] (succinate salt) were solubilized in a vehicle consisting of 70% […] 54 55 2

EC50 | SMILES
0.0004 µM | O=C1C(O)=C([C@H]2CC[C@H](c3ccc(Cl)cc3)CC2)C(=O)c2ccccc21 [atovaquone]
5.5 µM | [H]/N=C(\N/C(=N/[H])Nc1ccc(Cl)cc1)NC(C)C [proguanil]

From article PMC7179297, “Preclinical Antimalarial Combination Study of M5717, a Plasmodium falciparum Elongation Factor 2 Inhibitor, and Pyronaridine, a Hemozoin Formation Inhibitor” (Antimicrobial Agents and Chemotherapy, 2020)
